# Data taken from US4639541A, “Substituted phenylacetic acid iodopropargyl esters, biocidal agents containing same and process for manufacturing same” (priority 1984, dated 1987).
# Tested on: Colletotrichum coffeanum
# Assay: Spore germination test, Colletotrichum coffeanum
# Assay type: cell-based
# Conditions: 2 ppm, 48 hours, 20° C., vs untreated control
# Experimental: (§1) 50 μl of a solution or suspension of an active ingredient according to the invention together with 50 μl of a spore suspension produced by washing spores of an agar culture with a nutrient solution that contained per liter 10 g of sugar, 1 g of glycol, 1 g of KH2 PO4 and 0.5 g of MgSO4 were introduced into the concave-ground portion of concave-ground microscope slides.
# (§2) The microscope slides were stored at 20° C. for 48 hours in a Petri dish, the base of which was covered with a moistened filter paper.
# (§3) Subsequently, the ratio of germinated and non-germinated spores was compared with an untreated control specimen.
# (§4) The degree of activity was calculated as a percentage in accordance with the following formula: [formula]
row,Compound,degree of activity (fungal toxicity with respect to fungal spores) [%]
1,O=C(Cc1cc([N+](=O)[O-])c(Cl)c([N+](=O)[O-])c1)OCC#CI [H],100
2,O=C(Cc1cc([N+](=O)[O-])c(Cl)c([N+](=O)[O-])c1Cl)OCC#CI [G],60
3,O=C(Cc1ccc([N+](=O)[O-])cc1)OCC#CI [F],90

# Tested on: Botrytis cinerea
# Assay: Spore germination test, Botrytis cinerea
# Assay type: cell-based
# Conditions: 2 ppm, 48 hours, 20° C., vs untreated control
# Experimental: as §1, §2, §3, §4
row,Compound,degree of activity (fungal toxicity with respect to fungal spores) [%]
1,O=C(Cc1cc([N+](=O)[O-])c(Cl)c([N+](=O)[O-])c1)OCC#CI [H],70
2,O=C(Cc1cc([N+](=O)[O-])c(Cl)c([N+](=O)[O-])c1Cl)OCC#CI [G],100
3,O=C(Cc1ccc([N+](=O)[O-])cc1)OCC#CI [F],40

# Tested on: Alternaria tenuis
# Assay: Spore germination test, Alternaria tenuis
# Assay type: cell-based
# Conditions: 2 ppm, 48 hours, 20° C., vs untreated control
# Experimental: as §1, §2, §3, §4
row,Compound,degree of activity (fungal toxicity with respect to fungal spores) [%]
1,O=C(Cc1cc([N+](=O)[O-])c(Cl)c([N+](=O)[O-])c1)OCC#CI [H],100
2,O=C(Cc1cc([N+](=O)[O-])c(Cl)c([N+](=O)[O-])c1Cl)OCC#CI [G],70
3,O=C(Cc1ccc([N+](=O)[O-])cc1)OCC#CI [F],100

# Tested on: Fusarium culmorum
# Assay: Spore germination test, Fusarium culmorum
# Assay type: cell-based
# Conditions: 2 ppm, 48 hours, 20° C., vs untreated control
# Experimental: as §1, §2, §3, §4
row,Compound,degree of activity (fungal toxicity with respect to fungal spores) [%]
1,O=C(Cc1cc([N+](=O)[O-])c(Cl)c([N+](=O)[O-])c1)OCC#CI [H],90
2,O=C(Cc1cc([N+](=O)[O-])c(Cl)c([N+](=O)[O-])c1Cl)OCC#CI [G],70
3,O=C(Cc1ccc([N+](=O)[O-])cc1)OCC#CI [F],40

# Tested on: Penicillium glaucum
# Assay: Spore germination test, Penicillium glaucum
# Assay type: cell-based
# Conditions: 2 ppm, 48 hours, 20° C., vs untreated control
# Experimental: as §1, §2, §3, §4
row,Compound,degree of activity (fungal toxicity with respect to fungal spores) [%]
1,O=C(Cc1cc([N+](=O)[O-])c(Cl)c([N+](=O)[O-])c1)OCC#CI [H],100
2,O=C(Cc1cc([N+](=O)[O-])c(Cl)c([N+](=O)[O-])c1Cl)OCC#CI [G],70
3,O=C(Cc1ccc([N+](=O)[O-])cc1)OCC#CI [F],80

# Tested on: Verticillium dahliae
# Assay: Spore germination test, Verticillium dahliae
# Assay type: cell-based
# Conditions: 2 ppm, 48 hours, 20° C., vs untreated control
# Experimental: as §1, §2, §3, §4
row,Compound,degree of activity (fungal toxicity with respect to fungal spores) [%]
1,O=C(Cc1cc([N+](=O)[O-])c(Cl)c([N+](=O)[O-])c1)OCC#CI [H],40
2,O=C(Cc1cc([N+](=O)[O-])c(Cl)c([N+](=O)[O-])c1Cl)OCC#CI [G],70
3,O=C(Cc1ccc([N+](=O)[O-])cc1)OCC#CI [F],90

# Tested on: Fusarium nivale
# Assay: Spore germination test, Fusarium nivale
# Assay type: cell-based
# Conditions: 2 ppm, 48 hours, 20° C., vs untreated control
# Experimental: as §1, §2, §3, §4
row,Compound,degree of activity (fungal toxicity with respect to fungal spores) [%]
1,O=C(Cc1cc([N+](=O)[O-])c(Cl)c([N+](=O)[O-])c1)OCC#CI [H],90
2,O=C(Cc1cc([N+](=O)[O-])c(Cl)c([N+](=O)[O-])c1Cl)OCC#CI [G],80
3,O=C(Cc1ccc([N+](=O)[O-])cc1)OCC#CI [F],80

# Tested on: Botrytis cinerea
# Assay: Fungicidal activity against Botrytis cinerea in broad beans
# Assay type: in vivo
# Conditions: 500 ppm spray, broad beans "Midget", after 6 days, 20° C., 95% humidity, vs untreated
# Experimental: Broad beans of the "Midget" variety were grown to a height of approximately 10 cm. The plants were sprayed until dripping wet with spray liquors containing 500 ppm of active ingredient.
# When the spray coating had dried, the plants were inoculated with a spore suspension of Botrytis cinerea. The plants were placed in a climatic cabinet at a constant 20° C. and an atmospheric humidity of 95%.
# After 6 days, fungicidal activity was evaluated. The activity was ascertained in comparison with untreated specimens.
# The degree of activity as a percentage was ascertained in accordance with the following formula [formula] The following were used as active ingredients: I 2-chloro-3,5-dinitrophenylacetic acid iodopropargyl ester
row,Compound,% Activity against Botrytis cinerea in broad beans [%]
1,O=C(Cc1cc([N+](=O)[O-])c(Cl)c([N+](=O)[O-])c1)OCC#CI [H],30
2,Cc1cc(C)c(CC(=O)OCC#CI)c(C)c1 [L],20
3,O=C(Cc1c(Cl)c([N+](=O)[O-])cc([N+](=O)[O-])c1Cl)OCC#CI [K],30
4,O=C(Cc1cc([N+](=O)[O-])cc([N+](=O)[O-])c1Cl)OCC#CI [I],80
